Data on 2 compounds can be found in paper PMC5630020 (Genes & Development, 2017).

Molecules are shown by their SMILES.

Experiment [1] addresses T1, MglA–SspA complex (heterodimer) (Francisella tularensis, UniProt Q5NFG1+Q5NHJ6). The experiment in a line: biochemical.
The target in experiment [2] is T1, MglA–SspA complex (heterodimer).

T1 sequence (Q5NFG1 1-205): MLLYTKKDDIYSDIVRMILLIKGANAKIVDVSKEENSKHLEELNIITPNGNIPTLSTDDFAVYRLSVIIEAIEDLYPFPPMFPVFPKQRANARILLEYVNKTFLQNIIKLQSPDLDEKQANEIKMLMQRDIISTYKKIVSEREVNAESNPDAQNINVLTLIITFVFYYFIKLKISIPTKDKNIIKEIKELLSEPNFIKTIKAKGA
T1 sequence (Q5NHJ6 1-210): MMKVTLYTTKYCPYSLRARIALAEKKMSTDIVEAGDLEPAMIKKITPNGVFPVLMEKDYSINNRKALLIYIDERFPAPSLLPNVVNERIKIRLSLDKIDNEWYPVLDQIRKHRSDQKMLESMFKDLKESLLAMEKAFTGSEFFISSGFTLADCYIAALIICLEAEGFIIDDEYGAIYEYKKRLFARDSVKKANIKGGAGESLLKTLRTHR

One may read the Kd as the constant that tells how readily two partners part at equilibrium. High values mean lower affinity, low ones higher affinity. As to `Nc1nc2c(ncn2[C@@H]2O[C@H](COP(=O)(O)OP(=O)(O)O)[C@@H](OP(=O)(O)OP(=O)(O)O)[C@H]2O)c(=O)[nH]1` [ppGpp], the Kd in experiment [1] is roughly 12 µM.
Turning to `Nc1nc2c(ncn2[C@@H]2O[C@H](COP(=O)(O)OP(=O)(O)OP(=O)(O)O)[C@@H](O)[C@H]2O)c(=O)[nH]1` [GTP], in experiment [2], the “DRaCALA competition against 32P-ppGpp” value is “GTP competed weakly, and ATP, CTP, and UTP showed no detectable competition”.
